Earlier results, collected in patent US20180051069A1, “COMPOSITIONS AND METHODS FOR TREATING ALLERGIC INFLAMMATION” (THE GENERAL HOSPITAL CORPORATION, priority 2015, published 2018).
Blank lines part the entries; values can stand above or below the compound they belong to.

Columns and labels:
[1] = molecular target: alpha-glucosidase amyloglucosidase (Aspergillus niger, UniProt P69328); conditions: read-out: 50% inhibition
[2] = tested on: alpha- or beta-mannosidase
[3] = tested on: alpha- or beta-galactosidase
[4] = tested on: rat epididymal α-mannosidase
Golgi mannosidase II = molecular target: T1, Golgi mannosidase II (Homo sapiens, UniProt Q16706)
T1 sequence (Q16706 1-1144): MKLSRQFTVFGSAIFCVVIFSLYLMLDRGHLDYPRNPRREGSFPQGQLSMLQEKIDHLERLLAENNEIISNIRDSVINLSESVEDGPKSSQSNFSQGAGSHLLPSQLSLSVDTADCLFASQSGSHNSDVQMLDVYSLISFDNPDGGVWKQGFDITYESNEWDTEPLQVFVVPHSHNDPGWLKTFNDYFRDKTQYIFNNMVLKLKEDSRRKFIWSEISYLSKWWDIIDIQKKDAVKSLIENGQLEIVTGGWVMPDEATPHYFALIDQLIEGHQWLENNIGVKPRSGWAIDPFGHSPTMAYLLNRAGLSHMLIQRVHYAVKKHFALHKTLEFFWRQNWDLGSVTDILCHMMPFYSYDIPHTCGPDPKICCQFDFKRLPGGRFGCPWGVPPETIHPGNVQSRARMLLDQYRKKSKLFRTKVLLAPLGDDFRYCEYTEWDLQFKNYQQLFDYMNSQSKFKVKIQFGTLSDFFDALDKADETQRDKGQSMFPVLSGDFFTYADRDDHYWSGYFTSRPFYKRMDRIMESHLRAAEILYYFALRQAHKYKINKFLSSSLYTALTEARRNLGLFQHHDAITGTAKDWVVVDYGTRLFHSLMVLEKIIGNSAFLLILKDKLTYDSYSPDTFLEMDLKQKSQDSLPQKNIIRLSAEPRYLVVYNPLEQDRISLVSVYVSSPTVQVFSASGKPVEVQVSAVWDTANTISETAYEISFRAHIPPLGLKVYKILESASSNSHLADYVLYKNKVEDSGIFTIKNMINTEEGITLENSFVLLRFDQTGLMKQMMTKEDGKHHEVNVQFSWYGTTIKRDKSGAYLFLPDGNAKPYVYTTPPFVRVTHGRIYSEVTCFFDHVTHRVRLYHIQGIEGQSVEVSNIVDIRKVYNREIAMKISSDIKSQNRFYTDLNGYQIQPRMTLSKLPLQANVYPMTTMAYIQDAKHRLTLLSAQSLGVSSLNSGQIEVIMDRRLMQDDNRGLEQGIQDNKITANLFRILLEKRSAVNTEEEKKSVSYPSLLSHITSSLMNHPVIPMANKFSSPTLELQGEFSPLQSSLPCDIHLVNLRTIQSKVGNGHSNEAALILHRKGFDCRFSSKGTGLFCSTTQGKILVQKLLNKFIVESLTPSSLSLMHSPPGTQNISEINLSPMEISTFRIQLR

alpha-glucosidase amyloglucosidase, sequence (P69328 25-640): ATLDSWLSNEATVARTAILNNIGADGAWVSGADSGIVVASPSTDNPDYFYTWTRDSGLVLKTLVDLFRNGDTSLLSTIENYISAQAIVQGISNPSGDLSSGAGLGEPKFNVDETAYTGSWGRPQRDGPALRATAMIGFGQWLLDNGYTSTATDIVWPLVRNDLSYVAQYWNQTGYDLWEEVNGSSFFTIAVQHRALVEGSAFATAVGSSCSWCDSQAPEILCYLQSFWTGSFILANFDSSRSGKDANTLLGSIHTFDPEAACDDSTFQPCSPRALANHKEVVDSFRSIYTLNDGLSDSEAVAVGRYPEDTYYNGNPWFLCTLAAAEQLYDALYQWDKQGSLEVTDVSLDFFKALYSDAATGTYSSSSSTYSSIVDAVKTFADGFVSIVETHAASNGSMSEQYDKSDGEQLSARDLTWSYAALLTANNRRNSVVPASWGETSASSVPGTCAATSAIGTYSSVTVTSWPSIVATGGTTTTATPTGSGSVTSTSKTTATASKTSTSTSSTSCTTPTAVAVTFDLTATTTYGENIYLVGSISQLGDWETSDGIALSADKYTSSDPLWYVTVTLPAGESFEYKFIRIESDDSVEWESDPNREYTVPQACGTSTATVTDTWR

inhibition of alpha-glucosidase activities (alpha-glucosidase): inhibits
Compound: O[C@H]1[C@H](O)[C@@H](O)CN2CC[C@H](O)[C@H]12 [Castanospermine]

inhibition of rat liver mannosidase I (rat liver mannosidase I): inhibitor
Compound: OC[C@H]1NC[C@@H](O)[C@@H](O)[C@@H]1O [Deoxymannojirimycin]
effect on synthesis of N-linked oligosaccharides (cultured mammalian cells; intact cells): blocked the synthesis of complex types of N-linked oligosaccharides

effect on mannosidase I (mannosidase I): inhibits
Compound: O=C1N[C@@H]2[C@@H](O)[C@@H](O)[C@H](O)[C@@H](CO)N2C1=O [Kifunensine]
concentration causing complete shift of N-linked oligosaccharides from complex chains to Man9(GlcNAc)2 structures (cultured mammalian cells; added to cultured mammalian cells): ≥ 1 µg/mL

Further lines, the compound ahead of its results:

Compound: OC[C@@H]1[C@@H](O)[C@H](O)[C@H]2[C@@H](O)CCN21 [Australine]
IC50 [1]: 5.8 µM
inhibition of beta-glucosidase (beta-glucosidase): does not inhibit
inhibition of alpha- or beta-mannosidase [2]: does not inhibit
inhibition of alpha- or beta-galactosidase [3]: does not inhibit

Compound: CS[C@@H]1[C@@H](N)[C@@H](O)[C@@H](O)[C@H]1O [Mannostatin A]
inhibition of rat epididymal α-mannosidase [4]: reported to be an inhibitor

Compound: O[C@H]1[C@H]2[C@H](O)CCCN2C[C@H]1O [Swainsonine]
inhibition of Golgi mannosidase II (Golgi mannosidase II): potent inhibitor
effect on mannosidase I (mannosidase I): no effect
